This data set is described as follows: Cytotoxicity by flow cytometry with propidium iodide. Format: cell-based. The settings on record: human. From the text:
To study the effects of procyanidins on PRL-1 and PRL-3 in cells, the trimeric catechin (procyanidin C2, 9) was chosen as a representative example due to its strong inhibitor activity in vitro toward both PRL-s and its smaller size compared to the higher oligomers, which could influence cell permeability. HEK293 cells stably overexpressing PRL-1 and PRL-3 were chosen as model cell line. As a control cell line, HEK293 cells transfected with the empty vector were utilized (see the Experimental Procedures). To avoid false positive results due to cell death, first cell viability was studied in a concentration dependent manner by using flow cytometry. Therefore, cells were treated with different concentrations of compound 9 for 24 h, harvested, and then the ratio of living to dead cells was determined using propidium iodide (Fig 5).
Fig 5 Cytotoxicity of procyanidin C2 (9) in HEK293 cells. Cells were treated with 50, 150 or 300 μM of 9 in the growth medium for 24 h. Cells were harvested, resuspended in PBS buffer and incubated with propidium iodide (1 mg/mL) for 5 min on ice. 10,000 events were set for the number of living cells. The number of living cells was divided by the number of total cells counted and given as percentage of cell survival. Data represent means ± standard errors of the mean (n = 3).
Fig 7 A) Cytotoxicity of procyanidin B3 (8) in HEK293 cells. Cells were treated with 50, 75 or 100 μM of 8 in the growth medium for 24 h. Cells were harvested, resuspended in PBS buffer and incubated with propidium iodide (1 mg/mL) for 5 min on ice. 10,000 events were set for the number of living cells. The number of living cells was divided by the number of total cells counted and given as percentage of cell survival. Data represent means ± standard errors of the mean (n = 3). B) Wound healing abilities of PRL-1 or PRL-3 overexpressing or empty vector control HEK293 cell lines were analyzed in the presence of compound 8 or medium only. Cells were seeded at a concentration of 800,000 cells per insert and procyanidin B3 (8) was added at a concentration of 50 and 75 μM. Speed of migration is shown for combined data from different replicates, as mean ± SD (n = 40–77). Two-sided t-tests with Welsh correction were performed for p < 0.05. ns = not significant;***: < 0.001; **: < 0.01; *: < 0.05.
Flow cytometry was used to determine the ratio of living to dead cells compared to the control. HEK293 empty vector and PRL-3 overexpressing cells were seeded in a transparent 6-well plate with 400,000 cells/well in DMEM medium without Phenol red, supplemented with 10% FBS, 1% glutamine and 0.2% hygromycin and blasticidin. For induction of PRL-3 expression, 0.1% tetracycline was added. After 24 hours incubation at 37°C, procyanidins 8 or 9 dissolved in growth medium and growth medium as a control were added to the respective wells in the indicated final concentrations and incubated for another 24 hours. Then, the medium was removed and collected in Eppendorf tubes, centrifuged for 5 min at 500 rpm and the supernatant removed. Then 1 mL of PBS (10%) was added to each well and the cells detached with a cell scraper. […] After thorough mixing the cell suspension was injected into a LSR- Fortessa Bench Top Analyzer (Beckton Dickinson) and the number of living and dead cells counted. […] The number of living cells was divided by the number of total cells counted and given as percentage of cell survival.
A general note: A flow cytometer gives signals particle by particle.

For orientation: viability means a per cent measure of how many cells are alive, often set against a control. The compound `Oc1cc(O)c2c(c1)O[C@H](c1ccc(O)c(O)c1)[C@@H](O)[C@@H]2c1c(O)cc(O)c2c1O[C@H](c1ccc(O)c(O)c1)[C@@H](O)[C@@H]2c1c(O)cc(O)c2c1O[C@H](c1ccc(O)c(O)c1)[C@@H](O)C2` [Procyanidin C2 (9), Procyanidin C2] showed a viability at 24 h, 150 µM of roughly 50% and a viability at 24 h, 300 µM of roughly 50%.

The values above are taken from paper PMC4520450, “Procyanidins Negatively Affect the Activity of the Phosphatases of Regenerating Liver” (PLoS ONE, 2015).
